# Records with an inconclusive call do not appear. Calls of active or inactive are those of the source.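 How the source made its calls: active means compound giving calcium release at least equal to the estrogen response, or cutting estrogen-driven calcium release by 60% or more; inconclusive means compound glowing brighter than the detergent maximum; inactive means the rest.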
# Target: G-protein coupled estrogen receptor 1 (Homo sapiens) (UniProt Q99527)
# Assay: GPR30 agonists and antagonists by calcium flux, primary screen, HL-60 cells, Indo-1 fluorescence, 10 µM (AID 1213)
# Settings: Indo-1 calcium mobilization, at 10 µM; for calcium mobilization (agonist): stronger effect = higher value; for inhibition of estrogen-induced calcium mobilization (higher = more inhibition): measured here: antagonist mode response
Structure (SMILES),calcium mobilization (agonist),inhibition of estrogen-induced calcium mobilization (higher = more inhibition)
C[C@]12CC[C@@H]3c4ccc(O)cc4[C@@H](O)C[C@H]3[C@@H]1CC[C@@H]2O,0% (inactive),–
O=C(O)C1Nc2c(O)cc(Cl)c([N+](=O)[O-])c2C2C=CCC12 (centres undefined),0% (inactive),–
CCNC(=O)c1ccc2c(c1)C1C3CCC(C3)C1C(c1ccccc1)N2 (centres undefined),100%,–
CCCCOC(=O)c1c(C)oc2ccc(NS(=O)(=O)c3ccc4c5c(cccc35)C(=O)N4)cc12,0% (inactive),–
COc1cccc(NS(=O)(=O)c2ccc3c(c2)C2C=CCC2C(c2ccc(C(=O)O)cc2)N3)c1 (centres undefined),0%,100%
FC(F)(F)c1ccc2c(c1)C1C=CCC1C(c1ccncc1)N2 (centres undefined),0% (inactive),50%
CC(C)C1Nc2ccc(S(N)(=O)=O)cc2C2C=CCC21 (centres undefined),0% (inactive),–
CCOC(=O)c1ccc2c(c1)C1C=CCC1C(C(=O)O)N2 (centres undefined),0% (inactive),–
O=C(O)C1Nc2c(C(=O)N3CCOCC3)cccc2C2C=CCC12 (centres undefined),0% (inactive),–
C[C@]12CC[C@@H]3c4ccc(O)cc4C(=O)C[C@H]3[C@@H]1CC[C@@H]2O,0% (inactive),–
Cc1cc(C)cc(OCC(=O)Nc2ccc(N3CCCC3)cc2)c1,0% (inactive),–
O=C(Cc1cccs1)Nc1ccc(S(=O)(=O)Nc2ncccn2)cc1,0% (inactive),–
Cc1cc(-c2nn3c(-c4ccccc4)nnc3s2)c2ccccc2n1,0% (inactive),–
Cc1cc([N+](=O)[O-])c2c(c1C)C1C=CCC1C(c1ccccn1)N2 (centres undefined),0% (inactive),–
Fc1ccc2c(c1)C1C=CCC1C(c1cc3c(cc1Br)OCO3)N2 (centres undefined),100%,–
CCCCCCNC(=O)c1cc(-c2ccco2)nc2ccccc12,0% (inactive),–
NS(=O)(=O)c1ccc2c(c1)C1C=CCC1C(C1CC=CCC1)N2 (centres undefined),0% (inactive),–
CN(C)C(=O)c1ccc2c(c1)C1C3CCC(C3)C1C(c1ccccc1)N2 (centres undefined),100%,–
CCc1ccc2c(c1)[C@H]1OCC[C@H]1[C@@H](c1cccs1)N2,50% (inactive),–
O=C(NC1CC1)c1ccc2c(c1)C1C3CCC(C3)C1C(c1ccccc1)N2 (centres undefined),100%,–
CCCC1Nc2ccc(C(=O)O)cc2C2C=CCC12 (centres undefined),0% (inactive),–
O=C(OC1CCCCC1)c1ccc2c(c1)C1C=CCC1C(C(=O)O)N2 (centres undefined),0% (inactive),–
Oc1ccc(-c2nc(-c3ccc(O)c(O)c3)cs2)cc1,0% (inactive),–
CC(C)C1Nc2c(O)cc(Cl)c([N+](=O)[O-])c2C2C=CCC21 (centres undefined),100%,–
Cc1cc(C(=O)Nc2sc3c(c2C#N)CCC3)no1,0% (inactive),–

Structure (SMILES),calcium mobilization (agonist),inhibition of estrogen-induced calcium mobilization (higher = more inhibition)
CC(=O)c1ccc2c(c1)C1C=CCC1C(c1ccncc1)N2 (centres undefined),100%,–
CCC(=O)Oc1ccc(C(CC)C(CC)c2ccc(OC(=O)CC)cc2)cc1 (centres undefined),0% (inactive),–
O=C(O)c1ccc2c(c1)C1C=CCC1C(c1cc3c(cc1Br)OCO3)N2 (centres undefined),100%,–
O=S(=O)(NCCc1csc(-c2cccnc2)n1)c1ccc(Cl)s1,100%,–
COc1cccc2c1NC(C(=O)O)C1CC=CC21 (centres undefined),0% (inactive),–
Cc1cc(C)c2c(c1)NC(c1cc3c(cc1Br)OCO3)C1CC=CC21 (centres undefined),50% (inactive),–
C[C@H]1CCC[C@@H](O)CCC/C=C/c2cc(O)cc(O)c2C(=O)O1,50% (inactive),–
CC(C)(C)NC(=O)c1ccc2c(c1)C1C3CCC(C3)C1C(c1ccccc1)N2 (centres undefined),100%,–
O=C(O)c1ccc2c(c1)[C@@H]1C=CC[C@@H]1[C@H](c1ccccn1)N2,0% (inactive),–
COc1cccc(C2Nc3c(F)cc(Br)cc3C3C=CCC32)c1OC (centres undefined),0% (inactive),–
CC(=O)Nc1ccc(OC(=O)CC2SC(=O)NC2=O)cc1 (centres undefined),0% (inactive),–
Cc1cc(C)c2c(c1)[C@@H]1C=CC[C@@H]1[C@H](c1ccc(S(=O)(=O)N3CCOCC3)cc1)N2,0%,100%
COc1ccc(CNC(=O)c2cc(-c3cccs3)on2)cc1,0% (inactive),–
CCn1nnc(NC(=O)CSc2ccc(Cl)cc2)n1,0% (inactive),–
O=C(O)c1ccc2c(c1)C1C(Cl)C(Sc3ccccc3[N+](=O)[O-])CC1C(c1cccc([N+](=O)[O-])c1)N2 (centres undefined),0%,100%
Cc1nnc(SCC(=O)NC(=O)NCc2ccco2)n1Cc1ccccc1,0% (inactive),–
Fc1ccc2c(c1)[C@H]1OCC[C@H]1[C@@H](c1ccco1)N2,100%,–
CC(C)c1ccc2c(c1)[C@H]1OCC[C@H]1[C@@H](c1cccs1)N2,0% (inactive),–
O=C(Nc1cc(C(F)(F)F)ccc1N1CCOCC1)C1Cc2ccccc2CN1C(=O)c1ccco1 (centres undefined),0% (inactive),–
Cn1ccnc1SCC(=O)Nc1ccc2nc(SCC(=O)NC3CC3)sc2c1,0% (inactive),–
Cc1ccc2c(c1)[C@H]1OCC[C@H]1[C@@H](c1ccncc1)N2,0% (inactive),50%
Nc1ncnc2c1ncn2C1CCC(CO)C(O)C1 (centres undefined),0% (inactive),–
CC(C)C1Nc2ccc(C(=O)O)cc2C2C=CCC21 (centres undefined),0%,100%
CCCNC(=O)c1ccc2c(c1)C1C3CCC(C3)C1C(c1ccccc1)N2 (centres undefined),100%,–
Cc1ccc2c(c1)C1C=CCC1C(C(=O)O)N2 (centres undefined),0% (inactive),50%

Structure (SMILES),calcium mobilization (agonist),inhibition of estrogen-induced calcium mobilization (higher = more inhibition)
CC(=O)c1ccc2c(c1)C1C=CCC1C(C(=O)O)N2 (centres undefined),0% (inactive),–
COc1ccc(NC(=O)C(c2ccccc2)N(C)C(=O)c2ccc(=O)[nH]c2)cc1 (centres undefined),0% (inactive),–
CC(=O)N1c2ccc(Cl)cc2C2C=CCC2C1c1cccc2ccccc12 (centres undefined),100%,–
Oc1ccc(-c2nc3ccc4ccccc4c3c3c2CCC3)cc1O,0% (inactive),–
COc1ccc2c(c1)C1C=CCC1C(c1cc3c(cc1Br)OCO3)N2 (centres undefined),100%,–
Cc1ccc2c(c1Cl)NC(C(=O)O)C1CC(Sc3ccccc3[N+](=O)[O-])C(Cl)C21 (centres undefined),0%,100%
Cc1ccc2c(c1C)NC(C(=O)O)C1CC=CC21 (centres undefined),0%,100%
O=C(O)C1Nc2c(O)cccc2C2C=CCC12 (centres undefined),50% (inactive),–
O=C(O)c1ccc(NS(=O)(=O)c2ccc3c(c2)C2C=CCC2C(c2ccccc2F)N3)cc1 (centres undefined),0% (inactive),50%
COc1ccc(OC)c(C2Nc3c(Cl)ccc(C(=O)O)c3C3C=CCC32)c1 (centres undefined),50% (inactive),–
O=C(O)c1cc(Cl)c2c(c1)[C@@H]1C=CC[C@@H]1[C@H](c1ccc(S(=O)(=O)N3CCOCC3)cc1)N2,0% (inactive),–
COc1ccc(C(=O)N/N=C(\C)c2ccc3c(c2)C2C=CCC2C(c2ccccc2)N3)cc1 (centres undefined),50% (inactive),50%
O=C(c1cc2ncc(Br)cn2n1)N1CCN(C(=O)c2ccco2)CC1,0% (inactive),–
Cc1c(Cl)cccc1NS(=O)(=O)c1ccc2c(c1)C1C=CCC1C(c1ccc(C(=O)O)cc1)N2 (centres undefined),0%,100%
Cc1nn(-c2ccccc2)c(/N=C/c2ccc(O)cc2)c1-c1ccccc1,0% (inactive),–
N=C1C(c2nc3ccccc3[nH]2)=C(O)CN1c1ccc(CC(=O)O)cc1,0% (inactive),–
CCc1ccc(-c2nn(-c3ccccc3)cc2CSC(=N)N)cc1,50% (inactive),–
O=C(O)c1ccc(Cl)c2c1C1C=CCC1C(c1ccccn1)N2 (centres undefined),50% (inactive),–
CC(=O)c1ccc2c(c1)C1C(Cl)C(Sc3ccccc3[N+](=O)[O-])CC1C(c1ccccc1)N2 (centres undefined),0% (inactive),–
CC(=O)c1ccc2c(c1)C1C=CCC1C(c1ccc(S(=O)(=O)N3CCOCC3)cc1)N2 (centres undefined),100%,–
O=C(COC(=O)CCC(=O)c1cccs1)NCc1ccco1,0% (inactive),–
COc1cc(C2Nc3c(F)cccc3C3C=CCC32)cc(Br)c1OC (centres undefined),0% (inactive),–
O=C1NC(c2ccc(Br)cc2)Nc2sc3c(c21)CCC3 (centres undefined),50% (inactive),50%
CCc1nc2sc3ccccc3c(=O)c2c(=O)n1Cc1ccco1,0% (inactive),–
CCC(=O)Oc1ccc(/C(CC)=C(\CC)c2ccc(OC(=O)CC)cc2)cc1,0% (inactive),50%
